Assay results as given in a melting point compilation (Tetko et al.; mined from patent text by program, amines drawn as free bases though some values may be those of a salt).

Compound `CCCCCCCCCCCCNC(=O)CSCc1cc(C(C)(C)C)c(O)c(C(C)(C)C)c1` has a melting point of 43 to 46 °C.
Compound `CC(C)c1nn(-c2ccc(C(F)(F)F)cn2)cc1CCCOc1nn(C)cc1CC(=O)O` has a melting point of 122 to 123 °C.
`CN(c1ccccc1)c1nc(N2CCOCC2)nc(-n2ccnc2)n1` showed a melting point of 119 to 120 °C.
In the case of `N#CSCC1CC(=O)N(c2ccc(F)cc2)C1=O` (centres undefined), the melting point is reported as 88 °C.
`Cn1c(=O)c2c(OCc3ccccc3)cccc2n2cnc(-c3noc(C4CC4)n3)c12` showed a melting point of 221 to 224 °C.
`ClCOc1ccc2ccccc2c1` showed a melting point of 70 °C.
For `CC(=O)Nc1cccc(-c2c(C)c(NC(=O)CC(C)(C)C)c(C)c3c2OCC3c2ccc(C(C)C)cc2)c1` (centres undefined), the melting point was 247 to 248 °C.
`CC(C)(C)c1ccc(-c2ccc(N3CCCN(c4ccc(-c5ccc(C(C)(C)C)cc5)cn4)CC3)nc2)cc1` gave a melting point of 268 to 270 °C.
In the case of `Cc1csc2ncc(C(O)CC(C)c3ccccc3)n12` (centres undefined), the melting point is reported as 135 to 136 °C.
For `CC(C)c1nc(CNS(C)(=O)=O)n(C)c1Sc1cc(Cl)cc(Cl)c1`, the melting point was 116 to 118 °C.
`CCOC(=O)c1ccccc1NC(=O)Nc1ccccc1I` gave a melting point of 162 to 164 °C.
For `CC(=O)NCC1(N2CCN(C)CC2)CCCCC1`, the melting point was 110 to 111 °C.
With `N#Cc1c(C(N)=O)nn2c(-c3cccc(C(F)(F)F)c3)ccnc12` the melting point was 236 to 238 °C.
With `CCOn1c(OC)n[nH]c1=O` the melting point was 57 °C.
For `Cc1ccc2c(c1)[C@H](Nc1nc(NC=O)nc(C(F)F)n1)[C@@H](C)C2`, the melting point was 66 °C.
In the case of `OCCCc1ccc(OCCN2CCOCC2)cc1Oc1ncc(C(F)(F)F)cc1Cl`, the melting point is reported as 69.2 to 70.4 °C.
In the case of `O=c1[nH]cnc2c1ncn2[C@@H]1CO[C@H](CO)C1`, the melting point is reported as 98 °C.
`CCCCCCCCCCCCCCCCn1nnc(C(C(=O)Nc2c(OC)cc(OC)cc2OC)c2ccccc2)n1` (centres undefined) gave a melting point of 134 to 135 °C.
In the case of `COC(=O)c1ccccc1S(=O)(=O)NC(=O)Nc1nc(C)c2cc(C)oc2n1`, the melting point is reported as 197 to 198 °C.
Work on `CCOC(=O)c1ncn2c1CN=C(c1ccccc1)c1cc(I)ccc1-2` yielded a melting point of 221 to 222 °C.
Work on `COC(=O)c1ncn2c1CN(C)C(=O)c1cc(F)ccc1-2` yielded a melting point of 195 to 196 °C.
`OC(Cn1cncn1)(c1ccc(Cl)cn1)c1ccc(Cl)cc1Cl` (centres undefined) showed a melting point of 149 to 150 °C.
In the case of `CCOC(=O)C(=NOCc1ccc(OCc2nc(-c3ccccc3)oc2C)cc1)c1ccc(Br)cc1`, the melting point is reported as 105 to 106 °C.
In the case of `COc1ccc(Nc2c(N)cc(C(=O)O)cc2S(N)(=O)=O)cc1`, the melting point is reported as 214 °C.
`CCN(CC)c1ccc2c(c1)O/C(=C1/Oc3cc(N(CC)CC)ccc3C1=O)C2=O` gave a melting point of 292 °C.
`COc1ccc(-c2ccc3c(c2)C(C)(C)CCC3(C)C)cc1-c1ccc(C(=O)O)cc1` gave a melting point of 148 to 152 °C.
Work on `COc1cc(Oc2cccc(C(F)(F)F)c2)nc(C(=O)NC=C(Cl)Cl)c1` yielded a melting point of 123 to 125 °C.
With `COc1cc(C(O)c2ccc(C)cc2)cc(C2OCCCO2)c1OC` (centres undefined) the melting point was 83 to 84 °C.
In the case of `CCCC(=O)N1CCC(C(=O)OC2c3ccccc3C(=O)N2c2ccc3ccc(Cl)nc3n2)CC1` (centres undefined), the melting point is reported as 165 °C.
`O=C(O)[C@@]12C[C@@H](c3ccccc31)c1ccc(Cl)cc12` showed a melting point of 172 to 173 °C.
In the case of `COC(=O)/C=C/c1ccc(C=O)s1`, the melting point is reported as 61 to 62.5 °C.
In the case of `CCOC(=O)Cc1[nH]c(C(=O)OC(C)(C)C)c(CCc2cccc(Cl)c2)c1C(=O)OCC`, the melting point is reported as 131 to 132 °C.
With `COc1ccc(CN2C(=O)CC(C)(C)c3cc(Br)ccc32)cc1` the melting point was 118 to 119 °C.
`COC(=O)C1=CCC(NC(C)=O)C1` (centres undefined) gave a melting point of 72 to 74 °C.
Compound `Nc1ccccc1C1CCCN(C(=O)C(F)(F)F)C1` (centres undefined) has a melting point of 138 °C.
In the case of `CC(CCCc1ccccc1)Oc1cc(O)c2c(c1)CC(C)(C)CC2C(N)=O` (centres undefined), the melting point is reported as 155 to 157 °C.
In the case of `CC(C)(C)OC(=O)NC(Cc1ccccc1)C(=O)Nc1ccc2[nH]cc(CC#N)c2c1` (centres undefined), the melting point is reported as 146 to 149 °C.
Work on `O=c1oc(-c2ccccc2)cc(O)c1CCCc1ccccc1` yielded a melting point of 195 to 196 °C.
With `O=C(CCl)Nc1ccccc1C(=O)c1ccccc1C(F)(F)F` the melting point was 79 to 81 °C.
